According to PubChem BioAssay (NCI):
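GI50: concentration for 50% inhibition of growth. TGI denotes the concentration required for complete inhibition of growth.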

Columns and labels:
Experiment in all cases: NCI tumour cell line growth inhibition, 384-well format
786-0 renal = tested on: 786-0 renal
A498 renal = tested on: A498 renal
A549 NSCLC = tested on: A549 NSCLC
ACHN renal = tested on: ACHN renal
BT-549 breast = tested on: BT-549 breast
CAKI-1 renal = tested on: CAKI-1 renal
CCRF-CEM leukemia = tested on: CCRF-CEM leukemia
COLO 205 colon = tested on: COLO 205 colon
DU-145 prostate = tested on: DU-145 prostate
EKVX NSCLC = tested on: EKVX NSCLC
HCC-2998 colon = tested on: HCC-2998 colon
HCT-116 colon = tested on: HCT-116 colon
HCT-15 colon = tested on: HCT-15 colon
HL-60(TB) leukemia = tested on: HL-60(TB) leukemia
HOP-62 NSCLC = tested on: HOP-62 NSCLC
HOP-92 NSCLC = tested on: HOP-92 NSCLC
HS 578T breast = tested on: HS 578T breast
HT29 colon = tested on: HT29 colon
IGROV1 ovarian = tested on: IGROV1 ovarian
KM12 colon = tested on: KM12 colon
LOX IMVI melanoma = tested on: LOX IMVI melanoma
M14 melanoma = tested on: M14 melanoma
MALME-3M melanoma = tested on: MALME-3M melanoma
MCF7 breast = tested on: MCF7 breast
MDA-MB-231 breast = tested on: MDA-MB-231 breast
MDA-MB-435 melanoma = tested on: MDA-MB-435 melanoma
MDA-MB-468 breast = tested on: MDA-MB-468 breast
MOLT-4 leukemia = tested on: MOLT-4 leukemia
NCI-H226 lung = tested on: NCI-H226 lung

Compound: C=CC(=O)N1CCC([C@@H]2CCNc3c(C(N)=O)c(-c4ccc(Oc5ccccc5)cc4)nn32)CC1
- GI50 (786-0 renal): 15.4 µM
- TGI (786-0 renal): 37.7 µM
- GI50 (A498 renal): 15.1 µM
- TGI (A498 renal): > 56.3 µM
- GI50 (A549 NSCLC): 16.2 µM
- TGI (A549 NSCLC): > 52.4 µM
- GI50 (ACHN renal): 9.75 µM
- TGI (ACHN renal): 44.6 µM
- GI50 (BT-549 breast): 13.4 µM
- TGI (BT-549 breast): 26.4 µM
- GI50 (CAKI-1 renal): 14.7 µM
- TGI (CAKI-1 renal): 47.7 µM
- GI50 (CCRF-CEM leukemia): 19.7 µM
- TGI (CCRF-CEM leukemia): 35 µM
- GI50 (COLO 205 colon): 21.7 µM
- TGI (COLO 205 colon): 45.6 µM
- GI50 (DU-145 prostate): 11.6 µM
- TGI (DU-145 prostate): 30.6 µM
- GI50 (EKVX NSCLC): 6.77 µM
- TGI (EKVX NSCLC): 31.2 µM
- GI50 (HCC-2998 colon): 11.7 µM
- TGI (HCC-2998 colon): 24.2 µM
- GI50 (HCT-116 colon): 17.6 µM
- TGI (HCT-116 colon): 32.8 µM
- GI50 (HCT-15 colon): 16.8 µM
- TGI (HCT-15 colon): 32.1 µM
- GI50 (HL-60(TB) leukemia): 17.1 µM
- TGI (HL-60(TB) leukemia): 31.3 µM
- GI50 (HOP-62 NSCLC): 19.6 µM
- TGI (HOP-62 NSCLC): 49.6 µM
- GI50 (HOP-92 NSCLC): 14.6 µM
- TGI (HOP-92 NSCLC): 29.7 µM
- GI50 (HS 578T breast): 16 µM
- TGI (HS 578T breast): 30.8 µM
- GI50 (HT29 colon): 17.8 µM
- TGI (HT29 colon): 33.4 µM
- GI50 (IGROV1 ovarian): 4.22 µM
- TGI (IGROV1 ovarian): 16.9 µM
- GI50 (KM12 colon): 42.5 µM
- TGI (KM12 colon): > 100 µM
- GI50 (LOX IMVI melanoma): 14.9 µM
- TGI (LOX IMVI melanoma): 28.5 µM
- GI50 (M14 melanoma): 18 µM
- TGI (M14 melanoma): 36.8 µM
- GI50 (MALME-3M melanoma): 15.3 µM
- TGI (MALME-3M melanoma): 29.1 µM
- GI50 (MCF7 breast): 23.7 µM
- TGI (MCF7 breast): > 69 µM
- GI50 (MDA-MB-231 breast): 17.4 µM
- TGI (MDA-MB-231 breast): 33.6 µM
- GI50 (MDA-MB-435 melanoma): 23 µM
- TGI (MDA-MB-435 melanoma): 53.7 µM
- GI50 (MDA-MB-468 breast): 0.684 µM
- TGI (MDA-MB-468 breast): 4.09 µM
- GI50 (MOLT-4 leukemia): 14.3 µM
- TGI (MOLT-4 leukemia): 27.6 µM
- GI50 (NCI-H226 lung): 14.2 µM
- TGI (NCI-H226 lung): 32.3 µM
